Data as given in patent US10093683B2, “Factor XIa inhibitors” (Merck Sharp & Dohme Corp., priority 2014, dated 2018).
Counter-ions that a name gives are not always drawn. Like-named read-outs stand apart in the source and are kept apart here.

Molecular target: human Factor XIa (Homo sapiens (Human), UniProt P03951)
Assay: Factor XIa Assay
Format: biochemical
Settings: read-out: FXIa Ki
Outline: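 Ki derived from the dependence of Vo/Vi on inhibitor concentration under a competitive-inhibition model, after pre-equilibration of enzyme and inhibitor. Reaction: 40 pM human FXIa, 100 μM Z-Gly-Pro-Arg-AFC, HEPES 50 mM pH 7.4 with NaCl, CaCl2 and PEG 8000; run at room temperature or 37° C.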

[1] = purified human Factor XIa 40 pM, Z-Gly-Pro-Arg-AFC 100 μM, pH 7.4

Sequence of human Factor XIa (P03951 388-625): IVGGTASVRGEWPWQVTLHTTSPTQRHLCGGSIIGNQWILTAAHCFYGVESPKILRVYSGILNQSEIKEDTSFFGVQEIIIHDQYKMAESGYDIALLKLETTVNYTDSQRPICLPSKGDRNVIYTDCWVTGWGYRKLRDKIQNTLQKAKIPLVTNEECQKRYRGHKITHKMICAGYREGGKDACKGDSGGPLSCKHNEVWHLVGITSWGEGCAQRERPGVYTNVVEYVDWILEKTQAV
Sequence of human Factor XIa (P03951 19-387 partner): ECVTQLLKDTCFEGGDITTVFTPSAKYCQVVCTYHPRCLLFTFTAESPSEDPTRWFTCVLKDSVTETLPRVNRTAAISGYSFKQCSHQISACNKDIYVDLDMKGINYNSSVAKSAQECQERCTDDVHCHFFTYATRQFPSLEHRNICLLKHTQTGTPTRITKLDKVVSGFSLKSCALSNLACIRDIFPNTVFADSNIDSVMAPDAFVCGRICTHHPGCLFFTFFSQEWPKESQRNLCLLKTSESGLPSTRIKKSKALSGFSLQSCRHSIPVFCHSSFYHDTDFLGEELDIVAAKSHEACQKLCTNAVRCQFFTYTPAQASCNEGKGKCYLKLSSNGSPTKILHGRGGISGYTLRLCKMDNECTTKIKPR

Ki	Ki [1]	SMILES
925 nM	–	O=C1Nc2ccc(Cl)cc2[C@@]2(CCCN(C(=O)[C@H](CC3CC3)NC(=O)c3ccc(F)c(F)c3)C2)O1 [Example 202, N-((S)-1-((R)-6-chloro-2-oxo-1,2-dihydrospiro[benzo[d][1,3]oxazine-4,3′-piperidin]-1′-yl)-3-cyclopropyl-1-oxopropan-2-yl)-3,4-difluorobenzamide]
244 nM	–	COC(=O)Nc1ccc(C(=O)N[C@@H](CC2CC2)C(=O)N2CCC[C@@]3(C2)OC(=O)Nc2ccc(Cl)cc23)cn1 [Example 204]
72.2 nM	–	Nc1ccc(C(=O)N[C@@H](CC2CC2)C(=O)N2CCC[C@@]3(C2)OC(=O)Nc2ccc(Cl)cc23)cn1 [Example 205]
8750 nM	–	O=C1Nc2ccc(Cl)cc2[C@@]2(CCCN(C(=O)[C@H](CC3CC3)NC(=O)c3cnc4c(c3)CCN4)C2)O1 [Example 207]
0.22 nM	–	O=C1Nc2ccc(Cl)c(F)c2[C@@]2(CCCN(C(=O)[C@H](CC3CC3)NC(=O)c3ccc4[nH]c(=O)cc(O)c4c3)C2)O1 [Example 210]
39.6 nM	–	CC(=O)Oc1cc(=O)[nH]c2ccc(C(=O)N[C@@H](Cc3ccccc3)C(=O)N3CCC[C@@]4(C3)OC(=O)Nc3ccc(Cl)c(F)c34)cc12 [Example 211]
133 nM	–	O=C1Nc2ccc(Cl)c(F)c2[C@@]2(CCCN(C(=O)[C@H](Cc3ccccc3)NC(=O)c3ccc(NCC(F)(F)F)nc3)C2)O1 [Example 212]
246 nM	–	N#Cc1n[nH]c2cc(C(=O)N[C@@H](Cc3ccccc3)C(=O)N3CC[C@@]4(C3)OC(=O)Nc3ccc(Cl)cc34)ccc12 [Example 218]
2310 nM	–	NC(=O)c1n[nH]c2cc(C(=O)N[C@@H](Cc3ccccc3)C(=O)N3CC[C@@]4(C3)OC(=O)Nc3ccc(Cl)cc34)ccc12 [Example 219]
518 nM	–	O=C1Nc2ccc(Cl)cc2[C@@]2(CCCN(C(=O)[C@H](Cc3ccccc3)NC(=O)c3ccc4c(O)cc(=O)[nH]c4c3)C2)O1 [Example 221]
8750 nM	–	COC(=O)Nc1ccc(CN[C@@H](Cc2ccccc2)C(=O)N2CC[C@@]3(C2)OC(=O)Nc2ccc(Cl)cc23)cc1 [Example 222, Methyl (4-((((S)-1-((R)-6-chloro-2-oxo-1,2-dihydrospiro[benzo[d][1,3]oxazine-4,3′-pyrrolidin]-1′-yl)-1-oxo-3-phenylpropan-2-yl)amino)methyl)phenyl)carbamate]
8750 nM	–	COC(=O)Nc1ccc(C(N[C@@H](Cc2ccccc2)C(=O)N2CCC3(C2)OC(=O)Nc2ccc(Cl)cc23)C(F)(F)F)cc1 (stereo partly drawn) [Example 223, Methyl (4-(1-(((S)-1-((R)-6-chloro-2-oxo-1,2-dihydrospiro[benzo[d][1,3]oxazine-4,3′-pyrrolidin]-1′-yl)-1-oxo-3-phenylpropan-2-yl)amino)-2,2,2-trifluoroethyl)phenyl)carbamate]
8750 nM	–	CC(N[C@@H](Cc1ccccc1)C(=O)N1CC[C@@]2(C1)OC(=O)Nc1ccc(Cl)cc12)c1ccc2c(N)n[nH]c2c1 (stereo partly drawn) [Example 224, (4R)-1′-((1-(3-amino-1H-indazol-6-yl)ethyl)-L-phenylalanyl)-6-chlorospiro[benzo[d][1,3]oxazine-4,3′-pyrrolidin]-2(1H)-one dihydrochloride]
258 nM	–	O=C1Nc2ccc(Cl)c(F)c2[C@@]2(CCCN(C(=O)[C@H](Cc3ccccc3)NC(=O)c3ccc(-c4nc(=O)o[nH]4)cc3)C2)O1 [Example 232, N-((S)-1-((R)-6-chloro-5-fluoro-2-oxo-1,2-dihydrospiro[benzo[d][1,3]oxazine-4,3′-piperidin]-1′-yl)-1-oxo-3-phenylpropan-2-yl)-4-(5-oxo-2,5-dihydro-1,2,4-oxadiazol-3-yl)benzamide]
104 nM	–	COC(=O)NC12CC(C(=O)N[C@@H](Cc3ccccc3)C(=O)N3CCC[C@@]4(C3)OC(=O)Nc3ccc(Cl)c(F)c34)(C1)C2 [Example 238]
405 nM	–	O=C1Nc2ccc(Cl)cc2[C@@]2(CCCN(C(=O)[C@H](CC3CC3)NC(=O)c3csc(C(=O)O)n3)C2)O1 [Example 239]
177 nM	–	COC(=O)Nc1ccc(C(=O)N[C@@H](Cc2ccccc2)C(=O)N2CCC[C@@]3(C2)OC(=O)Nc2ccc(Cl)c(F)c23)nn1 [Example 242]

Ki	Ki [1]	SMILES
96 nM	–	COC(=O)NC12CCC(C(=O)N[C@@H](Cc3ccccc3)C(=O)N3CCC[C@@]4(C3)OC(=O)Nc3ccc(Cl)c(F)c34)(CC1)CC2 [Example 243]
77.8 nM	–	O=C1Nc2ccc(Cl)c(F)c2[C@@]2(CCCN(C(=O)[C@H](Cc3ccccc3)NC(=O)c3ccc(=O)[nH]c3)C2)O1 [Example 246]
66.8 nM	–	O=C1Nc2ccc(Cl)c(F)c2[C@@]2(CCCN(C(=O)[C@H](Cc3ccccc3)NC(=O)c3ccc(-n4cn[nH]c4=O)cc3)C2)O1 [Example 247, N-((S)-1-((R)-6-chloro-5-fluoro-2-oxo-1,2-dihydrospiro[benzo[d][1,3]oxazine-4,3′-piperidin]-1′-yl)-1-oxo-3-phenylpropan-2-yl)-4-(5-oxo-1,5-dihydro-4H-1,2,4-triazol-4-yl)benzamide]
298 nM	–	O=C1Nc2ccc(Cl)cc2C2(CCN(C(=O)[C@H](Cc3ccccc3)NC(=O)c3ccc4cc(C(=O)O)ccc4c3)C2)O1 (some centres unmarked) [Example 259]
4050 nM	–	Nc1ccc2cc(C(=O)N[C@@H](Cc3ccccc3)C(=O)N3CCC4(C3)OC(=O)Nc3ccc(Cl)cc34)ccc2n1 (some centres unmarked) [Example 261]
512 nM	–	O=C1Nc2ccc(Cl)cc2C2(CCN(C(=O)[C@H](Cc3ccccc3)NC(=O)c3ccc4ncc(O)nc4c3)C2)O1 (some centres unmarked) [Example 262]
1970 nM	–	O=C1Nc2ccc(Cl)cc2C2(CCN(C(=O)[C@H](Cc3ccccc3)NC(=O)c3ccc4c(c3)S(=O)(=O)N=CN4)C2)O1 (some centres unmarked) [Example 263]
367 nM	–	O=C1Nc2ccc(Cl)c(F)c2[C@@]2(CCCN(C(=O)[C@H](Cc3cccc(F)c3)NC(=O)c3ccc(C(=O)NCCP(=O)(O)O)cc3)C2)O1 [Example 273, (2-(4-(((S)-1-((R)-6-Chloro-5-fluoro-2-oxo-1,2-dihydrospiro[benzo[d][1,3]oxazine-4,3′-piperidin]-1′-yl)-3-(3-fluorophenyl)-1-oxopropan-2-yl)carbamoyl)benzamido)ethyl)phosphonic acid]
–	5000 nM	COC(=O)Nc1ccc(NC(=O)N[C@@H](Cc2ccccc2)C(=O)N2CCC3(C2)OC(=O)Nc2ccc(Cl)cc23)cc1 (stereo partly drawn) [Example 275, methyl (4-(3-((2S)-1-(6-chloro-2-oxo-1,2-dihydrospiro[benzo[d][1,3]oxazine-4,3′-pyrrolidin]-1′-yl)-1-oxo-3-phenylpropan-2-yl)ureido)phenyl)carbamate]
–	5000 nM	Nc1[nH]nc2c1CN(C(=O)N[C@@H](Cc1ccccc1)C(=O)N1CCC3(C1)OC(=O)Nc1ccc(Cl)cc13)C2 (stereo partly drawn) [Example 276, 3-amino-N-((2S)-1-(6-chloro-2-oxo-1,2-dihydrospiro[benzo[d][1,3]oxazine-4,3′-pyrrolidin]-1′-yl)-1-oxo-3-phenylpropan-2-yl)-4,6-dihydropyrrolo[3,4-c]pyrazole-5(2H)-carboxamide]
–	5000 nM	O=C(Nc1ccc(C(=O)O)cc1)N[C@@H](Cc1ccccc1)C(=O)N1CCC2(C1)OC(=O)Nc1ccc(Cl)cc12 (stereo partly drawn) [Example 277, 4-(3-((2S)-1-(6-chloro-2-oxo-1,2-dihydrospiro[benzo[d][1,3]oxazine-4,3′-pyrrolidin]-1′-yl)-1-oxo-3-phenylpropan-2-yl)ureido)benzoic acid]
–	5000 nM	NC(=O)c1n[nH]c2c1CN(C(=O)N[C@@H](Cc1ccccc1)C(=O)N1CCC3(C1)OC(=O)Nc1ccc(Cl)cc13)C2 (stereo partly drawn) [Example 278, N5-((2S)-1-(6-chloro-2-oxo-1,2-dihydrospiro[benzo[d][1,3]oxazine-4,3′-pyrrolidin]-1′-yl)-1-oxo-3-phenylpropan-2-yl)-4,6-dihydropyrrolo[3,4-c]pyrazole-3,5(1H)-dicarboxamide]
–	5000 nM	O=C(NCc1cccc(C(=O)O)c1)N[C@@H](Cc1ccccc1)C(=O)N1CCC2(C1)OC(=O)Nc1ccc(Cl)cc12 (stereo partly drawn) [Example 279, 3-((3-((2S)-1-(6-chloro-2-oxo-1,2-dihydrospiro[benzo[d][1,3]oxazine-4,3′-pyrrolidin]-1′-yl)-1-oxo-3-phenylpropan-2-yl)ureido)methyl)benzoic acid]
–	5000 nM	N#Cc1ccc(S(=O)(=O)N[C@@H](Cc2ccccc2)C(=O)N2CCC3(C2)OC(=O)Nc2ccc(Cl)cc23)cc1 (stereo partly drawn) [Example 280, N-((2S)-1-(6-chloro-2-oxo-1,2-dihydrospiro[benzo[d][1,3]oxazine-4,3′-pyrrolidin]-1′-yl)-1-oxo-3-phenylpropan-2-yl)-4-cyanobenzenesulfonamide]
–	≥ 5000 nM	CNC(=O)Nc1ccc(S(=O)(=O)N[C@@H](Cc2ccccc2)C(=O)N2CCC3(C2)OC(=O)Nc2ccc(Cl)cc23)c(Cl)c1 (stereo partly drawn) [Example 281, 2-chloro-N-((2S)-1-(6-chloro-2-oxo-1,2-dihydrospiro[benzo[d][1,3]oxazine-4,3′-pyrrolidin]-1′-yl)-1-oxo-3-phenylpropan-2-yl)-4-(3-methylureido)benzenesulfonamide]
–	≥ 5000 nM	O=C1COc2ccc(S(=O)(=O)N[C@@H](Cc3ccccc3)C(=O)N3CCC4(C3)OC(=O)Nc3ccc(Cl)cc34)cc2N1 (stereo partly drawn) [Example 282, N-((2S)-1-(6-chloro-2-oxo-1,2-dihydrospiro[benzo[d][1,3]oxazine-4,3′-pyrrolidin]-1′-yl)-1-oxo-3-phenylpropan-2-yl)-3-oxo-3,4-dihydro-2H-benzo[b][1,4]oxazine-6-sulfonamide]
–	≥ 5000 nM	O=C1Nc2ccc(Cl)cc2C2(CCN(C(=O)[C@H](Cc3ccccc3)NS(=O)(=O)c3ccc(C(=O)O)cc3)C2)O1 (stereo partly drawn) [Example 283, 4-(N-((2S)-1-(6-chloro-2-oxo-1,2-dihydrospiro[benzo[d][1,3]oxazine-4,3′-pyrrolidin]-1′-yl)-1-oxo-3-phenylpropan-2-yl)sulfamoyl)benzoic acid]

SMILES	Ki	Ki [1]
CCOP(=O)(OCC)c1ccc(C(=O)N[C@H](Cc2ccccc2)C(=O)N2CCC[C@@]3(C2)OC(=O)Nc2ccc(Cl)c(F)c23)cc1 [Example 229, diethyl (4-(((R)-1-((R)-6-chloro-5-fluoro-2-oxo-1,2-dihydrospiro[benzo[d][1,3]oxazine-4,3′-piperidin]-1′-yl)-1-oxo-3-phenylpropan-2-yl)carbamoyl)phenyl)phosphonate]	8750 nM	–
